The results in this text go back to patent US20230341404A1, “TARGETING STROMA-CANCER INTERACTIONS IN CANCER” (The Regents of the University of California, priority 2022, published 2023).

Residues, ends and D or L forms follow the SMILES beside them. *: point of attachment. Cbz = O=C(OCc1ccccc1)*

One test deals with PDAC cells. In words: cell viability assay (Cell Counting Kit-8) on wild-type or R/R ECM. It is filed as cell-based, mouse and human. The note with it: LG medium. As to the method: Cells were plated in 96-well plates coated with or without ECM at a density of 3,000 cells (MIA, 1305) or 1,500 cells (KPC or KC) per well and incubated overnight before treatment. 7rh (500 nM), ML120B (10 μM), EIPA (10.5 μM), IPI549 (600 nM), MBQ-167 (500 nM), MRT68921 (600 nM) or ML385 (10 μM), or their combinations, were added to the wells in the presence of complete medium (CM), LG medium or LQ medium for 72 h. Cell viability was determined with a Cell Counting Kit-8 assay (Glpbio). Optical density was read at 450 nm and analysed using a microplate reader with SoftMax 6.5 software (FilterMax F5, Molecular Devices). For all experiments, the medium was replaced every 24 h.

A further test concerns DDR1. Description: immunoblot of DDR1 in KPC cells plated on wild-type or R/R ECM. It is filed as cell-based, mouse. The note with it: LG medium, 24 h. As to the method: FIGS. 4A-4G: The Col I—DDR1—NRF2 axis controls macropinocytosis and mitochondrial biogenesis. FIG. 4A, Representative images and quantification of mitochondria and macropinocytosis in TMR-DEX-incubated parental and variant KPC cells grown on wild-type ECM. FIG. 4B, Immunoblot analysis of the indicated proteins in KPC cells grown on plastic or wild-type or R/R ECM and incubated in LG or LQ medium for 24 h. The effects of wild-type and R/R ECM on DDR1 signaling are summarized on the right. mito., mitochondria; pDDR1, phosphorylated DDR1. FIG. 4C, Representative images and quantification of mitochondria and macropinocytosis in TMR-DEX-incubated parental and NRF2^E79Q (E79Q) KPC cells plated on wild-type or R/R ECM in LG medium with or without 7rh or ML120B for 24 h. […] Statistical significance determined by two-tailed t-test. […]
The expression and function of DDR1 vary in different cancer stages and types^18-21. […] Unlike DDR1 in triple-negative breast cancer (TNBC)^20, no shedding of the DDR1 extracellular domain was detected (FIG. 12F). […]
Preparation of protein samples from cells and tissues, immunoblotting and immunoprecipitation were performed as before^10, 30. Immunoreactive bands were detected by an automatic X-ray film processor or a KwikQuant Imager.

The subject of test [1] is KPC or KC cells. In words: uptake of [3H] from [3H]-proline-labelled ECM. It is filed as cell-based, mouse. The note with it: LG medium, 24 h. As to the method:
To assess the effects of Col I on metabolism, Applicant labeled wild-type and R/R fibroblasts with [^3H]-proline or [U-^13C]-glutamine for five days, during which period the cells coated the plates with Col I-containing ECM. After decellularization, KPC or KC cells and variants thereof were plated and cultured for 24 h in LG medium. The uptake of [^3H] in cells plated on wild-type ECM was dependent on macropinocytosis, as indicated by sensitivity to macropinocytosis inhibitors (EIPA (an NHE1 inhibitor), IPI549 (a PI3Kγ inhibitor) or MBQ-167 (a CDC42 and RAC inhibitor)) and to the knockdown of NHE 1 or SDC1, and enhancement by the ULK1 inhibitor MRT68921 (MRT)^11.
Wild-type or R/R fibroblasts were seeded on 6, 12 or 96-well plates. One day after plating, cells were switched into DMEM (with pyruvate) with 10% dialysed FBS supplemented with or without 500 μM [^3H]-proline or [U-^[…]]-glutamine and 100 μM vitamin C. Cells were cultured for five days with renewal of the medium every 24 h. Then fibroblasts were removed by washing in 1 ml or 500 μl or 100 μl per well PBS with 0.5% (v/v) Triton X-100 and 20 mM NH4OH. The ECM was washed five times with PBS before cancer cell plating. The following day, cancer cells were switched into the indicated medium for 24 or 72 h.

Test [2] relates to KPC or KC cells. Description: L-amino acid assay. Particulars: cells cultured on wild-type ECM, LG medium, 24 h. It is filed as cell-based, mouse. As to the method: KPC or KC cells were grown on six-well plates coated with or without the indicated ECM in the presence of […] LG medium with or without EIPA (10.5 μM), MRT68921 (600 nM) or their combinations for 24 h. Total amounts of free 1-amino acids (except for glycine) were measured using an L-Amino Acid Assay Kit (Colorimetric, […]) according to the manufacturer's protocol. The concentration of 1-amino acids was calculated within samples by comparing the sample optical density to the standard curve and normalized to cell number.

Test [3] relates to KPC or KC cells. In words: luminescence ATP detection assay. Particulars: cells cultured on wild-type ECM, 24 h. Format: cell-based, mouse. As to the method: KPC or KC cells were grown on 96-well plates coated with or without the indicated ECM in the presence of 100 μl CM or LG medium with or without EIPA (10.5 μM), MBQ-167 (500 nM), MRT68921 (600 nM) or their combinations for 24 h. Then the cell number was measured. Intracellular ATP was determined with a luminescence ATP detection assay system (PerkinElmer) according to the manufacturer's protocol. Finally, luminescence was measured and normalized to cell number.

The next test has as its system KPC cells. In words: intrasplenic PDAC cell implantation (liver tumours). It is filed as in vivo, mouse. Particulars: 10 mg kg^−1 EIPA intraperitoneal every other day. As to the method: FIGS. 14A-14J: Effect of macropinocytosis and mitochondria on Col I-controlled PDAC cell growth. FIG. 14A, Bromodeoxyuridine (BrdU) incorporation into KPC cells plated on ECM mixtures produced by R/R and WT fibroblasts (R:W). Scale bars, 10 μm. FIG. 14B, FIG. 14C, Paren. and IKKα^KD KPC (FIG. 14B) or KC (FIG. 14C) cells were plated −/+ WT or R/R ECM and incubated in LG −/+ indicated reagents. Viable cells were measured after 3 days and depicted relative to untreated plastic-plated Paren. cells. (FIG. 14C). IKKα KD efficiency is shown on the right (FIG. 14B). FIGS. D, E, Viable 1305 (FIG. 14D) or MIA PaCa-2 (FIG. 14E) cells plated as above and incubated in LG −/+ EIPA. f, Viable Paren. and E79Q KPC cells plated, treated, and presented as above. […] Total viable cells were measured as above and are presented relative to the untreated cells. FIG. 14H, Mitochondrial ATP production calculated from FIG. 6B. […] Quantification of the SR positive area is shown on the left. […] Statistical significance determined by two-tailed t-test. […]
Three-month-old Col I^WT or Col I^r/r mice were treated with or without an oral gavage of 25% CCl4 in corn oil twice a week for two weeks. […] Mice were analysed 14 days after treatment with or without 10 mg kg^−1 EIPA (Sigma) by intraperitoneal injection every other day.

Where [4] appears, read: parental cells on wild-type ECM, 7rh 500 nM, ML120B 10 μM, ML385 10 μM, EIPA 10.5 μM, IPI549 600 nM, MBQ-167 500 nM.
Where [5] appears, read: IKKα^KD cells versus parental cells.

Regarding `Cc1ccccc1C(=O)N1CCc2cc(-c3nc(NC(=O)Cc4ccc5c(c4)OCO5)sc3C)ccc21` [ML385], the entries for the “cell growth (viable cells)” value in the test with PDAC cells (parental cells on R/R ECM) and with PDAC cells (setting [4]) were “did not decrease the low growth” and “decreased growth on wild-type ECM”, respectively.

For the compound `CC(C)C[C@@H](C=O)NC(=O)[C@H](CC(C)C)NC(=O)[C@H](CC(C)C)NC(=O)OCc1ccccc1` [MG132] (Cbz-Leu-Leu-Leu-aldehyde), in the test on DDR1, the DDR1 expression entry is “rescued DDR1 expression”.

Take `CCn1c2ccccc2c2cc(-n3nncc3-c3ccccc3)ccc21` (racemic) [MBQ-167]: the “cell growth (viable cells)” value with PDAC cells (setting [5]) is on record as “more sensitive”; in the test with PDAC cells (parental cells on R/R ECM) it was “did not decrease the low growth”; with PDAC cells (setting [4]), “decreased growth on wild-type ECM”. Besides, the “uptake of [3H]” value with KPC or KC cells [1] (cells plated on R/R ECM) is given as “unaffected”; in the test with KPC or KC cells [1] (cells plated on wild-type ECM), “sensitivity”.

`COc1c(Cl)cc2c([nH]c3cnccc32)c1NC(=O)c1cccnc1C` [ML120B]: the “cell growth (viable cells)” value is reported as “resistant” with PDAC cells (NRF2(E79Q)-expressing cells), “did not decrease the low growth” with PDAC cells (parental cells on R/R ECM) and “decreased growth on wild-type ECM” in the test with PDAC cells (setting [4]).

Consider `CN1CCc2cc(Nc3ncc(C4CC4)c(NCCCNC(=O)C4CCC4)n3)ccc2C1` [MRT68921], for which the amino acid content entry with KPC or KC cells [2] is given as “further increased”. Further, the “uptake of [3H]” value in the test on KPC or KC cells [1] (cells plated on wild-type ECM) was “enhancement”. Further, the “levels of ATP” value in the test on KPC or KC cells [3] is listed as “further increased”.

`CCN(c1nc(N)c(C(=O)NC(=N)N)nc1Cl)C(C)C` [EIPA]: the “cell growth (viable cells)” value is reported as “more sensitive” in the test on PDAC cells (setting [5]), “did not decrease the low growth” with PDAC cells (parental cells on R/R ECM) and “decreased growth on wild-type ECM” in the test with PDAC cells (setting [4]). Besides, the “uptake of [3H]” value in the test on KPC or KC cells [1] (cells plated on R/R ECM) is “unaffected”; in the test with KPC or KC cells [1] (cells plated on wild-type ECM), “sensitivity”. Moreover, the tumour growth result in the test on KPC cells (Col I^r/r livers) is “had little effect”; in the test on KPC cells (wild-type livers), “inhibited tumour growth”.

Take `C[C@H](NC(=O)c1c(N)nn2cccnc12)c1cc2cccc(C#Cc3cnn(C)c3)c2c(=O)n1-c1ccccc1` [IPI549]: the “cell growth (viable cells)” value was “more sensitive” in the test on PDAC cells (setting [5]), “did not decrease the low growth” in the test with PDAC cells (parental cells on R/R ECM) and “decreased growth on wild-type ECM” in the test on PDAC cells (setting [4]). Further, the entries for the “uptake of [3H]” value in the test with KPC or KC cells [1] (cells plated on R/R ECM) and in the test on KPC or KC cells [1] (cells plated on wild-type ECM) were “unaffected” and “sensitivity”, respectively.
